A value given as a limit tells only on which side of the number the result lay.

The test system of one experiment is M-NFS-60 cells. In words: M-NFS-60 cell proliferation assay. In kind it is cell-based, mouse. On the set-up: CSF1R Cell Proliferation (M-NFS-60) IC50 (nM): scale not given here. As to conditions: 72 hours incubation, Alamar Blue, M-CSF-dependent cells; for IC50: Mus musculus, read-out: CSF1R Cell Proliferation (M-NFS-60) IC50. The method, then: In certain embodiments, the compounds disclosed herein are tested in an M-NFS-60 cell proliferation assay to determine their cellular potency against CSF-1R. M-NFS-60s are mouse monocytic cells that depend on the binding of the ligand M-CSF to its receptor, CSF-1R, to proliferate Inhibition of CSF-1R kinase activity will cause reduced growth and/or cell death. This assay assesses the potency of compounds as CSF-1R inhibitors by measuring the reduction of Alamar Blue reagent by viable cells. An exemplary assay is described in the Examples section.
The compounds disclosed herein were tested in an M-NFS-60 cell proliferation assay to determine their cellular potency against CSF1R. M-NFS-60s are mouse monocytic cells that depend on the binding of the ligand M-CSF to its receptor, CSF1R, to proliferate Inhibition of CSF1R kinase activity will cause reduced growth and/or cell death. This assay assesses the potency of compounds as CSF1R inhibitors by measuring the reduction of Alamar Blue reagent by viable cells.
On day one of the experiment, M-NFS-60 cells were maintained in RPMI complete medium (Omega Scientific) plus 10% FBS supplemented with 20 ng/mL of M-CSF (R&D Systems). 96-well TC-treated, flat bottom plates were seeded at 10,000 cell/well at a volume of 100 μL per well. The cells were cultured overnight at 37° C. under 5% CO2.
On day two, compounds were added to the cells at 9 different concentrations, with half-log intervals alongside a control reference compound serving as a positive control. Final DMSO concentration was kept at 0.5% for a final volume of 200 μL. The compounds were allowed to incubate with the cells for 72 hours at 37° C. under 5% CO2.
On day five of the experiment, 40 μl of Alamar Blue reagent was added to each well and allowed to incubate for 3 hours. Alamar Blue fluorescence was read using SoftMax Pro software at 560 nm (excitation) and 590 nm (emission). IC50s were generated as an average of duplicates and represents the concentration of test compound that achieves 50% inhibition of cellular proliferation compared to control.
On the technique in general: Resazurin is reduced to fluorescent resorufin, in cell work by metabolically active cells.

Experiment [1] deals with kinase panel containing either 359 or 386 distinct kinases. In words: Competition binding assay, selectivity score (S10) against a panel of kinases. As to conditions: compounds at 10 μM; fraction of kinases with percent of control less than 10. As to the method:
Competition binding assays used herein were developed, validated and performed as described in Fabian et al., Nature Biotechnology 2005, 23, 329-336. Kinases were produced as fusions to T7 phage (See, Fabian et al. or WO04/015142) or alternatively, the kinases were expressed in HEK-293 cells and subsequently tagged with DNA for PCR detection (See, WO08/005,310). […] The liganded beads were blocked with excess biotin and washed with blocking buffer (SeaBlock (Pierce), 1% BSA, 0.05% Tween 20, 1 mM DTT) to remove unbound ligand and to reduce non-specific binding. […] Test compounds were prepared as 100× stocks in DMSO and diluted into the aqueous environment. Kds were determined using an eleven point threefold serial dilutions. DMSO or control compounds were was added to control assays lacking a test compound. Primary screen assays were performed in polypropylene 384-well plates in a final volume of 20-40 μL, while Kd determinations were performed in polystyrene 96-well plates in a final volume of […]. […] The kinase concentration in the eluates was measured by quantitative PCR.
A selectivity score (S10) is a quantitative measure of selectivity of a compound against a panel of kinases. An S10 was calculated for a compound by dividing the number of kinases found to have a percent of control (DMSO) less than 10 by the total number of distinct kinases tested (excluding mutant variants). Percent of control (POC) is calculated by subtracting the signal of the control compound
(POC=0) from the signal of the test compound and dividing the outcome by the signal of DMSO (POC=100) minus the signal of the control compound. For the compounds disclosed herein, S10 scores were obtained by testing the compounds at 10 μM concentration in a kinase panel containing either 359 or 386 distinct kinases.

The target in a further experiment is T1, CSF1R (human) (Homo sapiens, UniProt P07333).
T1 construct: made in house; host or cells: T7 phage display or HEK-293 cells (alternatives, not resolved per kinase)
Briefly: Competition binding assay, CSF1R (human) Kd. The method, then:
The liganded beads were blocked with excess biotin and washed with blocking buffer (SeaBlock (Pierce), 1% BSA, 0.05% Tween 20, 1 mM DTT) to remove unbound ligand and to reduce non-specific binding. […] Test compounds were prepared as 100× stocks in DMSO and diluted into the aqueous environment. Kds were determined using an eleven point threefold serial dilutions. DMSO or control compounds were was added to control assays lacking a test compound. […] The kinase concentration in the eluates was measured by quantitative PCR.

T1 sequence (P07333 20-972): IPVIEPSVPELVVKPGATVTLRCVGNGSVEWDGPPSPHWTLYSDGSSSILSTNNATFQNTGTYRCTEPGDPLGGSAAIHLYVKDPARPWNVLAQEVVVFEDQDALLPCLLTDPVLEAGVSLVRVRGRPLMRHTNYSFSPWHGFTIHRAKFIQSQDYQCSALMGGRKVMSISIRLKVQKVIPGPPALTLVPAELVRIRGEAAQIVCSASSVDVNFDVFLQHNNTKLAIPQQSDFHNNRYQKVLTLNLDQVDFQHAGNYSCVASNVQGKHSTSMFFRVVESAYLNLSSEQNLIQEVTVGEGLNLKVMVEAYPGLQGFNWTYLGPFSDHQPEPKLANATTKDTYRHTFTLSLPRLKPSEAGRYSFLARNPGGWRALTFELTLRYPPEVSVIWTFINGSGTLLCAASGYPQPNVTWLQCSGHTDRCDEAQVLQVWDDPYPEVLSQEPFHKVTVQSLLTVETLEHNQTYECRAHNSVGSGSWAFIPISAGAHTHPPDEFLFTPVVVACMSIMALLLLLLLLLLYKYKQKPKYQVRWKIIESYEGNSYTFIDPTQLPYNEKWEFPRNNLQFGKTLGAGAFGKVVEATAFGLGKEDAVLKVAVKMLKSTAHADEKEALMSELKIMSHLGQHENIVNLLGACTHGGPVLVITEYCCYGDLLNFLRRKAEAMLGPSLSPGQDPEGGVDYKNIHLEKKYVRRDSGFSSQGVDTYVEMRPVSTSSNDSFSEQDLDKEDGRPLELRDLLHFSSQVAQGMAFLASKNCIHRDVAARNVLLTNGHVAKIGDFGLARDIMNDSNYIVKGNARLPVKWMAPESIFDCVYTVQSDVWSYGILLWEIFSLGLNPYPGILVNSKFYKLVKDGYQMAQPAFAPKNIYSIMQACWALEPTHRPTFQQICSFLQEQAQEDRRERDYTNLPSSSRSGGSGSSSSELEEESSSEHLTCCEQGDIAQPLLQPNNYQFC

As for `CC(C)N1CC(Oc2ccc(C(=O)Nc3ccc(NC(=O)Nc4cc(C(C)(C)C)on4)cc3)nc2)C1`, the IC50 in the experiment with M-NFS-60 cells is ≤ 100 nM. For the same compound, the “Kinase Specificity (S10)” value in experiment [1] is given as “B (0.03 < B ≦ 0.05)”. The Kd (usually the free concentration of one partner at which half of the binding sites on the other are occupied at equilibrium, for simple one-to-one binding) on CSF1R (human) is < 3 nM.
On to `CC(C)(C)c1cc(NC(=O)Nc2ccc(NC(=O)c3ccc(OC4CN(C5COC5)C4)cn3)cc2)no1`, for which, in the experiment with M-NFS-60 cells, the IC50 was ≤ 100 nM. For the same compound, in experiment [1], the “Kinase Specificity (S10)” value is given as “C (C > 0.05)”. Besides, on CSF1R (human), the Kd is < 3 nM.
For `CC(C)N1CCC(Oc2ccc(C(=O)Nc3ccc(NC(=O)Nc4cc(C(C)(C)C)on4)cc3)nc2)C1` (stereo not drawn), in that order: ≤ 100 nM, “B (0.03 < B ≦ 0.05)” and < 3 nM.
Turning to `CCN1CCC(Oc2ccc(C(=O)Nc3ccc(NC(=O)Nc4cc(C(C)(C)C)on4)cc3)nc2)C1` (stereo not drawn), the IC50 in the experiment with M-NFS-60 cells is ≤ 100 nM. Besides, the “Kinase Specificity (S10)” value in experiment [1] was “B (0.03 < B ≦ 0.05)”. Moreover, the Kd at CSF1R (human) was < 3 nM.
For `CC(C)(C)c1cc(NC(=O)Nc2ccc(NC(=O)c3ccc(OC4CCN(C5COC5)C4)cn3)cc2)no1` (stereo not drawn) the same measures were ≤ 100 nM, “B (0.03 < B ≦ 0.05)” and < 3 nM.
For the compound `CCN1CCC(Oc2ccc(C(=O)Nc3ccc(NC(=O)Nc4cc(C(C)(C)F)no4)cc3)nc2)CC1`, the “CSF1R Cell Proliferation (M-NFS-60) IC50 (nM)” value in the experiment with M-NFS-60 cells is on record as “A/B”. The “Kinase Specificity (S10)” value in experiment [1] is listed as “A (A ≦ 0.03)”. Besides, the Kd on CSF1R (human) is < 3 nM.
With `CC(C)N1CCC(Oc2ccc(C(=O)Nc3ccc(N(C)C(=O)Nc4cc(C(C)(C)C)on4)cc3)nc2)C1` (stereo not drawn), the IC50 in the experiment with M-NFS-60 cells was in the range of 100 to 250 nM. In addition, the “Kinase Specificity (S10)” value in experiment [1] was “C (C > 0.05)”. Besides, the Kd on CSF1R (human) is < 3 nM.
For `CC(C)(C)c1cc(NC(=O)Nc2ccc(NC(=O)c3ccc(OC4CCN(CCS(C)(=O)=O)C4)cn3)cc2)no1` (stereo not drawn), the IC50 in the experiment with M-NFS-60 cells is ≤ 100 nM. The “Kinase Specificity (S10)” value in experiment [1] was “C (C > 0.05)”. Also, at CSF1R (human), the Kd is < 3 nM.
For `CN(C)C(=O)CN1CCC(Oc2ccc(C(=O)Nc3ccc(NC(=O)Nc4cc(C(C)(C)C)on4)cc3)nc2)C1` (stereo not drawn) the same measures were ≤ 100 nM, “B (0.03 < B ≦ 0.05)” and < 3 nM.
For `CCN1CCC(Oc2ccc(C(=O)Nc3ccc(NC(=O)Nc4cc(C(C)(C)C(F)(F)F)on4)cc3)nc2)CC1`, in that order: ≤ 100 nM, “C (C > 0.05)” and < 3 nM.
For `CC(C)N1CCC(Oc2ccc(C(=O)Nc3ccc(NC(=O)Nc4cc(C(C)(C)C(F)(F)F)on4)cc3)nc2)CC1`, in that order: ≤ 100 nM, “C (C > 0.05)” and < 3 nM.
For `CC(C)N1CC[C@@H](Oc2ccc(C(=O)Nc3ccc(NC(=O)Nc4cc(C(C)(C)C)on4)cc3)nc2)C1`, the IC50 in the experiment on M-NFS-60 cells is ≤ 100 nM. Also, the “Kinase Specificity (S10)” value in experiment [1] is given as “C (C > 0.05)”. The Kd at CSF1R (human) was < 3 nM.
In the case of `Cc1cc(NC(=O)Nc2cc(C(C)(C)C)on2)ccc1NC(=O)c1ccc(OC2CC(C)(C)N(C)C(C)(C)C2)cn1`, in the experiment on M-NFS-60 cells, the IC50 was > 1000 nM. For the same compound, in experiment [1], the “Kinase Specificity (S10)” value was “C (C > 0.05)”. The same compound showed a Kd at CSF1R (human) of 3 to 10 nM.
`Cc1cc(NC(=O)c2ccc(OC3CC(C)(C)N(C)C(C)(C)C3)cn2)ccc1NC(=O)Nc1cc(C(C)(C)C)on1`: in the experiment on M-NFS-60 cells, the IC50 fell in the range of 100 to 250 nM. Also, the “Kinase Specificity (S10)” value in experiment [1] is “B (0.03 < B ≦ 0.05)”. The Kd at CSF1R (human) was < 3 nM.
For `CC(C)N1CC[C@H](Oc2ccc(C(=O)Nc3ccc(NC(=O)Nc4cc(C(C)(C)C)on4)cc3)nc2)C1`, in that order: ≤ 100 nM, “C (C > 0.05)” and < 3 nM.
`CN1C2CCC1CC(Oc1ccc(C(=O)Nc3ccc(NC(=O)Nc4cc(C(C)(C)C)on4)cc3)nc1)C2` (stereo not drawn): the IC50 with M-NFS-60 cells is ≤ 100 nM. In addition, the “Kinase Specificity (S10)” value in experiment [1] was “C (C > 0.05)”. Besides, on CSF1R (human), the dissociation constant Kd was < 3 nM.
For `COc1cc(NC(=O)c2ccc(OC3CC(C)(C)N(C)C(C)(C)C3)cn2)ccc1NC(=O)Nc1cc(C(C)(C)C)on1` the same measures were > 1000 nM, “A (A ≦ 0.03)” and 3 to 10 nM.

Values taken from patent publication US9296722B2, “Azolyl urea compounds and methods of use thereof” (Ambit Biosciences Corporation, priority 2010, dated 2016).
